The source of these data is patent US9309222B2, “Phenyl linked quinolinyl modulators of RORγt” (Janssen Pharmaceutica NV, priority 2012, dated 2016).

One experiment addresses T1, human RORγt LBD (Homo sapiens, UniProt P51449).
T1 construct: expressed in transfected cells
T1 sequence (P51449 258-518): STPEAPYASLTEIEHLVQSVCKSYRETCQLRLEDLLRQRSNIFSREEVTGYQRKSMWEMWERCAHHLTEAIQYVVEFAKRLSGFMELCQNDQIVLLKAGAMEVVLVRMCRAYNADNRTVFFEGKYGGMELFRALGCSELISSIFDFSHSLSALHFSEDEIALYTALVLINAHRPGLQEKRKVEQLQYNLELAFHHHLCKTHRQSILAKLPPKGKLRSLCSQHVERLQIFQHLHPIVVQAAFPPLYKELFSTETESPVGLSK
As to the kind of experiment: RORγt reporter assay (GAL4-RORγt LBD luciferase in HEK293T cells). The settings on record: for IC50: HEK293T cells, 24 hours compound treatment; for inhibition at 6 µM: HEK-293T, read-out: RORγt reporter Assay, % inhibition @ 6 μM, HEK293T cells, 6 μM compound. The experiment is classed as cell-based. From the text:
A reporter assay was used to test functional activity of RORγt modulatory compounds on transcriptional activation driven by the RORγt LBD. Cells used in the assay were co-transfected with two constructs. The first construct, pBIND-RORγt LBD, contained the wild type human RORγt LBD fused to the DNA binding domain of the GAL4 protein. The second construct, pGL4.31 (Promega Cat no. C935A), contained multiple GAL4 responsive DNA elements upstream of firefly luciferase. […] The mutant construct was called pBIND-RORγt-AF2.
The pBIND vector contains the GAL4 DNA Binding Domain (GAL4 DBD) and the renilla luciferase gene under control of the SV40 promoter. Renilla luciferase expression serves as a control for transfection efficiency and cell viability.
The reporter assay was performed by transiently transfecting HEK293T cells with 5 ng of pBIND-RORγt LBD or pBIND-RORγt LBD-AF2 and 5 μg pGL4.31 (Promega Cat no. C935A) using Fugene 6 (Invitrogen Cat no. E2691) at a 1:6 ratio of DNA:Fugene 6 in a T-75 flask in which cells were at least 80% confluent. Twenty four hours after bulk transfection, cells were plated into 96-well plates at 50,000 cells/well in phenol-red free DMEM containing 5% Lipid Reduced FCS and Pen/Strep. Six hours after plating, cells were treated with compounds for 24 hours. Media was removed and cells were lysed with 50 μL 1× Glo Lysis Buffer (Promega). Dual Glo Luciferase Reagent (50 μL/well) was then added and firefly luciferase luminescence was read on an Envision after a ten minute incubation. Finally, Stop and Glo reagent (50 μL/well) was added and renilla luciferase luminescence was read on an Envision after a ten minute incubation. To calculate the effect of compounds on RORγt activity, the ratio of firefly to renilla luciferase was determined and plotted against compound concentration. Agonist compounds increase RORγt-driven luciferase expression, and antagonist or inverse agonist compounds decrease luciferase expression.

Experiment [1] concerns the target T2, human RORγt ligand binding domain (RORγt LBD) (Homo sapiens, UniProt P51449).
T2 construct: His-tag (N); TurboTEV protease cleavage site (ENLYFQG) (N); made in house; host or cells: E. coli (pHIS1, modified pET vector)
T2 sequence (P51449 with tags, fused parts or gaps): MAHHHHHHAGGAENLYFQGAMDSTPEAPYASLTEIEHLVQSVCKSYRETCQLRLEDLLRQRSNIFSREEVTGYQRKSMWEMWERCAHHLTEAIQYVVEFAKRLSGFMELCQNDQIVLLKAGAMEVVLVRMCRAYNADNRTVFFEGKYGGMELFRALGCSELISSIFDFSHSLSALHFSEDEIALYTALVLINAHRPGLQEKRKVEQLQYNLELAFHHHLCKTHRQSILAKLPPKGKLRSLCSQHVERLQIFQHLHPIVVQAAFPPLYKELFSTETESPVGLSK
The experiment is described as follows: RORγt ThermoFluor assay (thermal shift, ligand binding affinity). The following applies: estimated from concentration response of thermal shift. How it is done:
This approach is applicable to a wide variety of systems, and rigorous in theoretical interpretation through quantitation of equilibrium binding constants (KD).
The shift in the melting point described as a ΔTm is proportional to the concentration and affinity of the ligand.
RORγt ThermoFluor® Assay Construct
Protein and compound solutions are dispensed into black 384-well polypropylene PCR microplates (Abgene) and overlayed with silicone oil (1 μL Fluka, type DC 200) to prevent evaporation.
Fluorescence was measured by continuous illumination with UV light (Hamamatsu LC6) supplied via fiber optic and filtered through a band-pass filter (380-400 nm; >6 OD cutoff). Fluorescence emission of the entire 384-well plate was detected by measuring light intensity using a CCD camera (Sensys, Roper Scientific) filtered to detect 500±25 nm, resulting in simultaneous and independent readings of all 384 wells. Images were collected at each temperature, and the sum of the pixel intensity in a given area of the assay plate was recorded versus temperature. Reference wells contained RORγt without compounds, and the assay conditions were as follows: • 0.065 mg/mL RORγt • 60 μM 1,8-ANS • 100 mM Hepes, pH 7.0 • 10 mM NaCl • 2.5 mM GSH • 0.002% Tween-20
Project compounds were arranged in a pre-dosed mother plate (Greiner Bio-one) wherein compounds are serially diluted in 100% DMSO by 1:2 from a high concentration of 10 mM over 12 columns within a series (column 12 is a reference well containing DMSO, no compound).
The compounds were robotically dispensed directly into assay plates (1×=[…]) using a Hummingbird capillary liquid handling instrument (Digilab). Following compound dispense, protein and dye in buffer was added to achieve the final assay volume of 3 μL, followed by 1 μL of silicone oil.

Structures can show the parent of a compound that is named as a salt.

As usually defined, the IC50 is the concentration at which inhibition is half-maximal. A lower IC50 goes with greater potency in that assay. Broadly, the inhibition is the relative decrease from the control value, in per cent. The Kd is the equilibrium constant for the complex coming apart.

Turning to `Cc1nn(C)c(C)c1C(O)(c1ccccc1)c1ccc2nc(Cl)c(-c3ccccc3Cl)c(Cl)c2c1` (stereo not drawn) [Example 7, (2,4-Dichloro-3-(2-chlorophenyl)quinolin-6-yl)(phenyl)(1,3,5-trimethyl-1H-pyrazol-4-yl)methanol], on human RORγt LBD, 1.2 µM corresponded to half-maximal inhibition (IC50) and the inhibition at 6 µM turned out to be 83%. For the same compound, in experiment [1], the Kd is 5.3 µM.
In the same order, the values of `COc1nc2ccc(C(O)(c3ccc(Cl)cc3)c3cncn3C)cc2cc1-c1ccccc1` (stereo not drawn) [Example 9] are 6.1 µM, 70% and 7.1 µM.
In the same order, the values of `CN(C)c1ccc(C(O)(c2ccc3nc(Cl)c(-c4ccccc4)c(Cl)c3c2)c2cncn2C)cn1` (stereo not drawn) [Example 11, (2,4-Dichloro-3-phenylquinolin-6-yl)[6-(dimethylamino)pyridin-3-yl](1-methyl-1H-imidazol-5-yl)methanol•TFA] are 4.2 µM, 75% and 1.1 µM.
In the same order, the values of `CN1CCN(c2nc3ccc(C(O)(c4ccncc4)c4cncn4C)cc3c(Cl)c2-c2ccccc2)CC1` (stereo not drawn) [Example 19, [4-Chloro-2-(4-methylpiperazin-1-yl)-3-phenylquinolin-6-yl](1-methyl-1H-imidazol-5-yl)pyridin-4-ylmethanol•TFA] are greater than 6 µM, 13% and 9.1 µM.
`COCOc1ccc(C(O)(c2cccnc2)c2ccc3nc(Cl)c(-c4ccccc4)c(Cl)c3c2)cc1` (stereo not drawn) [Example 23, (2,4-Dichloro-3-phenylquinolin-6-yl)[4-(methoxymethoxy)phenyl]pyridin-3-ylmethanol]: at human RORγt LBD, the IC50 worked out at 0.8 µM and the inhibition at 6 µM came to 89%. Also, the Kd in experiment [1] is 0.23 µM.
In the case of `OC(c1ccncc1)(c1ccc2nc(Cl)c(-c3ccccc3)c(Cl)c2c1)c1ccccn1` (stereo not drawn) [Example 27, (2,4-Dichloro-3-phenylquinolin-6-yl)(pyridin-2-yl)pyridin-4-ylmethanol•TFA], at human RORγt LBD, half-maximal inhibition (IC50) was put at 4.2 µM and the inhibition at 6 µM stood at 75%. The Kd in experiment [1] was 8.3 µM.
As for `OC(c1cccnc1)(c1ccc2nc(Cl)c(-c3ccccc3)c(Cl)c2c1)c1ccccc1Cl` (stereo not drawn) [Example 28, (2-Chlorophenyl)(2,4-dichloro-3-phenylquinolin-6-yl)pyridin-3-ylmethanol•TFA], at human RORγt LBD, the IC50 is roughly 0.2 µM and the inhibition at 6 µM was 99%. In addition, in experiment [1], the equilibrium dissociation constant (Kd) was 0.23 µM.
For the compound `Cn1cncc1C(N)(c1ccc2nc(Cl)c(-c3ccccc3)c(Cl)c2c1)c1ccccn1` (stereo not drawn) [Example 31, 1-(2,4-Dichloro-3-phenylquinolin-6-yl)-1-(1-methyl-1H-imidazol-5-yl)-1-pyridin-2-ylmethanamine•HCl], at human RORγt LBD, half-maximal inhibition (IC50) was put at 2.1 µM and the inhibition at 6 µM worked out at 67%. Moreover, in experiment [1], the Kd was 5.6 µM.
In the case of `CN(C)c1c(-c2ccccc2)c(Cl)nc2ccc(C(O)(c3ccc(Cl)cc3)c3cccnc3)cc12` (stereo not drawn) [Example 33, [2-Chloro-4-(dimethylamino)-3-phenylquinolin-6-yl](4-chlorophenyl)pyridin-3-ylmethanol•TFA], at human RORγt LBD, the IC50 turned out to be 2 µM and the inhibition at 6 µM amounted to 78%. The Kd in experiment [1] was 3.3 µM.
For the compound `CN(C)c1c(-c2ccccc2)c(Cl)nc2ccc(C(O)(c3ccc(F)cc3)c3cccnc3)cc12` (stereo not drawn) [Example 39, [2-Chloro-4-(dimethylamino)-3-phenylquinolin-6-yl](4-fluorophenyl)pyridin-3-ylmethanol•TFA], on human RORγt LBD, the IC50 stood at 1.6 µM and the inhibition at 6 µM turned out to be 86%. The Kd in experiment [1] is 2.5 µM.
On to `CN(C)c1c(-c2ccccc2)c(Cl)nc2ccc(C(O)(c3cccnc3)c3cccc(Cl)c3)cc12` (stereo not drawn) [Example 42, [2-Chloro-4-(dimethylamino)-3-phenylquinolin-6-yl](3-chlorophenyl)pyridin-3-ylmethanol•TFA], for which, at human RORγt LBD, the IC50 is roughly 2 µM and the inhibition at 6 µM worked out at 91%. Besides, the Kd in experiment [1] is 1.4 µM.
In the same order, the values of `CN(C)c1nc2ccc(C(O)(c3cccnc3)c3ccccn3)cc2c(Cl)c1-c1ccccc1` (stereo not drawn) [Example 43, [4-Chloro-2-(dimethylamino)-3-phenylquinolin-6-yl](pyridin-2-yl)pyridin-3-ylmethanol•TFA] are 1.1 µM, 99% and 1.6 µM.
Regarding `CN(C)c1c(-c2ccccc2)c(Cl)nc2ccc(C(O)(c3cccnc3)c3ccccc3Cl)cc12` (stereo not drawn) [Example 45, [2-Chloro-4-(dimethylamino)-3-phenylquinolin-6-yl](2-chlorophenyl)pyridin-3-ylmethanol•TFA], at human RORγt LBD, the IC50 is 1.6 µM and the inhibition at 6 µM was 75%. Moreover, the Kd in experiment [1] was 2.9 µM.
In the same order, the values of `Cc1cc(C(O)(c2ccc3nc(Cl)c(-c4ccccc4)c(Cl)c3c2)c2nccn2C)cc(Cl)n1` (stereo not drawn) [Example 46, (2-Chloro-6-methylpyridin-4-yl)(2,4-dichloro-3-phenylquinolin-6-yl)(1-methyl-1H-imidazol-2-yl)methanol] are 2 µM, 94% and 4 µM.
For the compound `Cn1cncc1C(O)(c1cccnc1)c1ccc2ncc(-c3ccccc3)c(Cl)c2c1` (stereo not drawn) [Example 51, (4-Chloro-3-phenylquinolin-6-yl)(1-methyl-1H-imidazol-5-yl)pyridin-3-ylmethanol•TFA], at human RORγt LBD, the IC50 was roughly 4 µM and the inhibition at 6 µM came to 75%. In addition, in experiment [1], the dissociation constant (Kd) was 1.8 µM.
In the same order, the values of `OC(c1cccnc1)(c1cccc(Cl)c1)c1ccc2ncc(-c3ccccc3)c(Cl)c2c1` (stereo not drawn) [Example 52, (3-Chlorophenyl)(4-chloro-3-phenylquinolin-6-yl)pyridin-3-ylmethanol] are roughly 3 µM, 80% and 1.3 µM.
In the same order, the values of `Cn1cncc1C(O)(c1ccncc1)c1ccc2ncc(-c3ccccc3)c(Cl)c2c1` (stereo not drawn) [Example 53, (4-Chloro-3-phenylquinolin-6-yl)(1-methyl-1H-imidazol-5-yl)pyridin-4-ylmethanol•TFA] are roughly 2 µM, 61% and 0.95 µM.
As for `COc1ccc(C(O)(c2cccnc2)c2ccc3nc(Cl)c(-c4ccccc4)c(Cl)c3c2)cc1` (stereo not drawn) [Example 55, (2,4-Dichloro-3-phenylquinolin-6-yl)(4-methoxyphenyl)(pyridin-3-yl)methanol], at human RORγt LBD, the concentration for half-maximal inhibition (IC50) turned out to be 0.82 µM and the inhibition at 6 µM is 92%. Moreover, the Kd in experiment [1] was 0.33 µM.
